The values below come from US6699875B2, “Cascade esters of camptothecins and methods of treating cancer using these compounds” (priority 2002, dated 2004).

Series [1] can be described thus: Metabolism and pharmacokinetics of camptothecin in human plasma. Type of series: in vitro ADME.
A short description of series [2]: Closed lactone form of CPT in plasma after intrastomach administration in mice. Type of series: in vivo.
Series [3] can be described thus: Closed lactone form of CPT in plasma after oral administration in humans. Type of series: in vivo.
Series [4] in a line: Plasma level of closed lactone form of 9NC after oral administration to Phase I patients. In kind it is in vivo, humans. The following applies: after oral administration to Phase I clinical trial patients, on average.
The next series relates to human malignancies. Kind of series: Clinical responses in Phase I clinical trial patients. Type of series: in vivo. The following applies: in humans, oral. The source says:
Clearly, there is a pressing need for a modification which will slow and delay the lactone ring opening upon its entrance into the blood circulation.

Series [5] can be described thus: Plasma level of closed lactone form of 9NC after i.s. administration. Type of series: in vivo, mice.
In a further series the test system is human tumor xenografts. The following applies: in mice; cited from earlier work.
For series [6] the following is noted: sodium carboxylate salt vs closed lactone camptothecin; cited from earlier work.

Turning to 20(S)-camptothecin [CPT], the “half-life time of the drug with lactone intact” value in series [1] was 30 min. Further, the metabolite detected entry in series [1] is on record as “the only metabolite detected is the ring-opened sodium carboxylate salt”. The “closed lactone form, share of the area under the curve” value in series [2] was “approximately 54%”; in series [3], “about 0.4%”.
As to `CC[C@@]1(O)C(=O)OCc2c1cc1n(c2=O)Cc2cc3c([N+](=O)[O-])cccc3nc2-1` [9NC, 9-nitrocamptothecin], the entries for the “share of drug present in the plasma in the closed lactone form” value in series [4] and in series [5] were roughly 3% and 57%, respectively. The complete tumor regressions in the series with human malignancies is recorded as 2/32; with human tumor xenografts it was 32/32. Further, in the series with human tumor xenografts, the “potency relative to CPT against human tumor xenografts” value is listed as 2-3 times.
For `CC[C@@](O)(C(=O)[O-])c1cc2n(c(=O)c1CO)Cc1cc3ccccc3nc1-2.[Na+]` [sodium carboxylate salt], the “potency relative to native camptothecin with the closed lactone ring intact” value in series [6] is reported as 10%.
